Columns and labels:
Type in all cases: in vivo, rat
[1] = system: rats exposed to chronic stress; experiment: Acquisition of vanilla sugar-sustained appetitive behaviour (VAB) in the Y-maze during chronic stress; conditions: for No. of correct choices: rats, ALCAR 10 mg/kg IP, BID or IMI 5 mg/kg BID started after pre-test, chronic stress 8 days, then 3-week Y-maze training with stress on alternate days, mean ± standard error; for protection from negative effect of chronic stress on VAB acquisition: second experiment: chronic administration during exposure to stress and training in the Y-maze
From the text: The anhedonia model is based on the observation that the fact of being exposed to a repeated unavoidable stress prevents the development of an appetitive behaviour induced and maintained by a highly palatable food (vanilla sugar) in rats fed ad libitum (Behav. Pharmacol. 8:619-628, 1997). […]
The Y-maze was made up of three wings. The vanilla sugar for the acquisition of the appetitive behaviour was in one of the two diverging wings (VAB training, 3 weeks).
e) VAB: the physiological solution was administered to the animals (1 ml/kg IP, BID) for 8 days, and then the rats were trained in the Y-maze for VAB acquisition while continuing the treatment with physiological solution for 3 weeks;
(§1) f) Stress+VAB: the animals were exposed to the pre-test. Twenty-four hours later they were subjected to the escape test, and then exposed to the chronic stress procedure for 7 days. On day 9, they started their training in the Y-maze while exposed to stress on alternate days;
(§2) g) acetyl L-carnitine+Stress+VAB: the animals were exposed to the pre-test. Twenty-four hours later they underwent the escape test. Then, they were exposed to the protocol of chronic stress for 7 days, while receiving acetyl L-carnitine 10 mg/kg IP, BID for 8 days. On day 9, the rats started their VAB training in the Y-maze and exposure to stress on alternate days, while continuing treatment with the acetyl L-carnitine for 3 weeks;
(§3) h) IMI+Stress+VAB: the animals were exposed to the pre-test. Twenty-four hours later, they underwent the escape test, and then they were exposed to the chronic stress protocol for 7 days while receiving imipramine 5 mg/kg IP, BID for 8 days. On day 9, the rats started their training in the Y-maze and exposure to stress on alternate days, while continuing with IMI for 3 weeks.

[2] = system: dopamine in the nucleus accumbens (Nacs); experiment: Microdialysis of dopamine in the Nacs after 7-day stress: basal, vanilla sugar meals, cocaine (Example 2); conditions: for Dopamine (max percentage increase) Meal 1 / Dopamine (max percentage increase) Meal 2: mean ± standard error of 10; for protection from the neurochemical effects resulting from a repeated exposure to stress: Example 2, IMI 5 mg/kg IP BID or FLX 5 mg/kg IP/die for 8 days with 7-day stress
Method: Sixty rats were divided in 6 groups of 10 animals each, as follows:
a) Control (Crt): the animals were administered physiological solution 1 ml/kg IP, BID for 8 days;
b) acetyl L-carnitine: the animals were administered acetyl L-carnitine 10 mg/kg IP, BID for 8 days;
c) Stress: the animals were exposed to the pre-test, they were tested for escape 24 hours later, and then they were exposed to the chronic stress protocol for 7 days, while receiving physiological solution (for 8 days);
d) acetyl L-carnitine+Stress: the animals were exposed to the pre-test, they were tested for escape 24 hours later, and then they were exposed to the chronic stress protocol for 7 days, while receiving acetyl L-carnitine 10 mg/kg IP, BID, for 8 days;
e) IMI+Stress: the animals were exposed to the pre-test, they were tested for escape 24 hours later, and then they were exposed to the chronic stress protocol for 7 days, while receiving IMI 5 mg/kg IP, BID for 8 days;
f) FLX+Stress: the animals were exposed to the pre-test, they were tested for escape 24 hours later, and then they were exposed to the chronic stress protocol for 7 days, while receiving FLX 5 mg/kg IP/die for 8 days.
On day 9, all the animals were implanted with dialysis probes in the Nacs; on day 10, the animals were dialysed.
The basal levels of dopamine were determined over 60 minutes.
At this point, the rats were offered 5 vanilla sugar pellets (Meal 1); 4 samples of dialysis fluid were taken over the next 60 minutes.
The rats were offered vanilla sugar one more time (Meal 2), and samples of dialysis fluid were taken over 60 minutes.
Finally, the rats were injected with cocaine 5 mg/kg IP, 0.1 ml in water and samples of dialysis fluid were taken over 60 minutes.

[3] = system: rats exposed to chronic stress; experiment: Escape test in rats exposed to unavoidable/chronic stress; conditions: for N0 of escapes After 8 days / N0 of escapes After stress + 3-week VAB training: ALCAR 10 mg/kg IP; for N0 of escapes After 8 days: BID or IMI 5 mg/kg BID plus chronic stress for 8 days; for N0 of escapes After stress + 3-week VAB training: BID or IMI 5 mg/kg BID, 8 days plus 3 weeks with stress on alternate days; for escape deficit induced by chronic stress: second experiment, end of 3-week training
Method: c) Stress: 10 rats were treated with physiological solution (1 ml/kg IP, BID) for 14 days. Then, the animals were exposed to the sequence of pre-test [with the pre-test, the animals were exposed to both unavoidable stress (electric shocks) of minimum intensity and duration, capable to induce a reliable modification of behaviour. Brain. Res. Protocols 7(1):11-20; 2001]; escape test [(also defined as “test”) carried out 24 hours after the pre-test, to assess the induced behaviour modification (Brain. Res. Protocols 7(1):11-20; 2001)]; Y- maze training and exposure to the chronic stress procedure on alternate days (maze one day, and stress the next day) for three weeks (Brain. Res. Protocols 7(1): 11-20; 2001), while continuing treatment with physiological solution;
d) acetyl L-carnitine+Stress: 10 rats were treated with acetyl L-carnitine (10 mg/kg, IP, BID) for 14 days. Then, animals were exposed to the sequence of: -pre-test; -test; -Y-maze training and simultaneously exposed to the chronic stress procedure on alternate days (maze one day, and stress the next day) for three weeks, while continuing treatment with acetyl L-camitine.
At the end of the VAB training, all the animals exposed to stress underwent the escape test (Brain. Res. Protocols 7(1):11-20; 2001).
as §1, §2, §3
At the end of the training period, all the animals underwent the escape test.

[4] = system: dopamine in the nucleus accumbens (Nacs); experiment: Microdialysis of extraneuronal dopamine in the nucleus accumbens after VAB training (Example 1); conditions: rats trained in the Y-maze during chronic stress exposure and treated; for dopamine in the Nacs after the acute administration of cocaine vs control animals (FIGS. 3 and 4): cocaine 5 mg/kg IP
Method: Two days later, animals were implanted with microdialysis probes into the nucleus accumbens (Nacs) (Brain. Res. Protocols 5(1):16-24: 2000) and underwent dialysis on the next day.
Once the dopamine basal level had been reached, the rats were administered a single dose of cocaine 5 mg/kg IP in 0.1 ml volume of water, and dialysed within the next 60 minutes.

[5] = rats exposed to chronic stress for 7 days during ALCAR 10 mg/kg IP BID, IMI 5 mg/kg IP BID or FLX 5 mg/kg IP/die, 8 days, Nacs

SMILES | negative effect of chronic stress on VAB acquisition (FIGS. 1 and 2) ([1]; first experiment: 14-day pre-treatment 10 mg/kg IP BID, continued throughout training with chronic stress) | No. of correct choices [1] | protection from negative effect of chronic stress on VAB acquisition [1] | basal levels of dopamine in the Nacs vs control rats (FIGS. 5 and 6) ([2]; Example 2, 8-day treatment) | increase of dopamine in the Nacs after the acute administration of cocaine vs control rats ([2]; Example 2, 8-day treatment, cocaine 5 mg/kg IP) | Dopamine (max percentage increase) Meal 1 [2, 5] [%] | Dopamine (max percentage increase) Meal 2 [2, 5] [%] | increase in the output of dopamine after two consecutive vanilla sugar meals ([2]; rats exposed to stress and treated with acetyl L-carnitine, Nacs) | Dopamine (max percentage increase) Meal 1 ([2]; rats not exposed to stress, acetyl L-carnitine 10 mg/kg IP, BID 8 days, Nacs dialysate after first vanilla sugar meal) [%] | Dopamine (max percentage increase) Meal 2 ([2]; rats not exposed to stress, acetyl L-carnitine 10 mg/kg IP, BID 8 days, Nacs dialysate after second vanilla sugar meal) [%] | N0 of escapes After 8 days ([3]; rats, mean ± standard error) | N0 of escapes After stress + 3-week VAB training ([3]; rats, mean ± standard error) | No. of escapes 24 hours after the pre-test ([3]; rats, acetyl L-carnitine 10 mg/kg IP, BID for 14 days before pre-test, mean ± standard error) | No. of escapes After training for VAB and exposure to stress ([3]; rats, acetyl L-carnitine 10 mg/kg IP, BID, 14-day pre-treatment continued during 3-week VAB training and chronic stress, mean ± standard error) | escape deficit induced by chronic stress [3] | basal levels of extraneuronal dopamine in the Nacs vs control animals (FIGS. 3 and 4) [4] | dopamine output levels in the Nacs vs control group [4] | dopamine in the Nacs after the acute administration of cocaine vs control animals (FIGS. 3 and 4) [4] | protection from the neurochemical effects resulting from a repeated exposure to stress [2]
CC(=O)O[C@H](CC(=O)[O-])C[N+](C)(C)C [ALCAR, acetyl L-carnitine] | prevented such negative effect from occurring | 7.6 ± 0.5 | fully protected the rats from negative effect of chronic stress on VAB acquisition | significantly higher | significantly higher | 286.4 ± 16.4 | 276.7 ± 18.6 | approx 300% | 35.7 ± 1.8 | 6.8 ± 5.1 | 1.0 ± 0.5 | 22.4 ± 2.8 | 25.8 ± 2.5 | 26.4 ± 2.9 | completely reversed | significantly higher | superimposable to those observed in the control group | significantly higher | –
CN(C)CCCN1c2ccccc2CCc2ccccc21 [IMI, imipramine, reference compound] | – | 2.9 ± 1.2 | protected the rats from the negative effect of chronic stress on VAB acquisition | – | – | 3.3 ± 2.3 | 4.1 ± 3.5 | – | – | – | 2.5 ± 1.1 | 24.8 ± 1.0 | – | – | completely reversed | significantly lower | – | significantly lower | Neither the treatment with IMI nor the treatment with FLX were capable to protect
CNCCC(Oc1ccc(C(F)(F)F)cc1)c1ccccc1 (stereo not shown) [FLX, fluoxetine, reference compound] | – | – | – | – | – | 4.6 ± 4.2 | 3.6 ± 4.0 | – | – | – | – | – | – | – | – | – | – | – | Neither the treatment with IMI nor the treatment with FLX were capable to protect

Source: US20060148896A1, “Use of an alkanoyl L-carnitine for the preparation of a medication to treat anhedonia” (Sigma-Tau Industrie Farmaceutiche Riunite S.p.A., priority 2001, published 2006)
